Data from US5300501A, “Peptidyl derivatives” (Celltech Limited, priority 1990, dated 1994).

Assays:
Format in all cases: biochemical
Gelatinase-72KD = target: T1, Gelatinase-72KD (Homo sapiens, UniProt P08253); test: Enzyme inhibition assay (peptide substrate Dnp-Pro-Leu-Gly-Leu-Trp-Ala-D-Arg-NH2, Trp fluorescence), gelatinase; details: pH 7.5, overnight; true Ki from plot of Ki (app) vs. [S], y-axis intercept
T1 sequence (P08253 110-660): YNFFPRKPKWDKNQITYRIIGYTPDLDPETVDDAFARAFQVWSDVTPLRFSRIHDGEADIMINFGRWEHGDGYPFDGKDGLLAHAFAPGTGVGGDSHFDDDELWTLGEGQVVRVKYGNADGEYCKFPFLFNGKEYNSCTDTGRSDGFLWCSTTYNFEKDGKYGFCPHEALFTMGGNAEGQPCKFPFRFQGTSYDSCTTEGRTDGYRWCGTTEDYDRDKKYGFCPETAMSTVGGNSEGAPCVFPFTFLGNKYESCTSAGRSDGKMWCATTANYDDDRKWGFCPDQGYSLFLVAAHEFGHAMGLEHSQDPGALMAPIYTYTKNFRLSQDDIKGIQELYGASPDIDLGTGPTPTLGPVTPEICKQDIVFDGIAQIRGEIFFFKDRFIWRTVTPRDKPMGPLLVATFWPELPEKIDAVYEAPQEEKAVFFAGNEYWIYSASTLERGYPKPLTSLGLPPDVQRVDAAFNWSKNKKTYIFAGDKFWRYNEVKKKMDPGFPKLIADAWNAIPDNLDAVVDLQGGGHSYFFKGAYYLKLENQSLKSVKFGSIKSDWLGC
Source text: (§1) The enzymes cleave at the Gly-Leu bond which can be followed fluorimetrically by measuring the increase in Trp fluorescence emission associated with the removal of the quenching dinitrophenol (Dnp) group.
(§2) Ki values can be established using the equation for tight-being inhibition: [formula] where Vo is the initial rate of reaction in the absence of inhibitor, Vi is the initial rate in the presence of inhibitor, [E] is the total enzyme concentration and [I] the total inhibitor concentration in the reaction mixture.
(§3) For stromelysin and collagenase, Ki (app) was assumed to approximate to the true Ki as [S]<<Km for the substrate hydrolysis. For gelatinase the Ki was determined by performing the analyses at several substrate concentrations. A plot of Ki (app) vs. [S] then gave the true Ki as the value of the y-axis intercept.

Stromelysin-1 = Stromelysin-1 (Homo sapiens, UniProt P08254); test: Enzyme inhibition assay (peptide substrate Dnp-Pro-Leu-Gly-Leu-Trp-Ala-D-Arg-NH2, Trp fluorescence), stromelysin; details: pH 7.5, overnight, Ki (app) assumed to approximate true Ki
Source text: as §1, §2, §3

Collagenase = target: T2, Collagenase (Homo sapiens, UniProt P03956); test: Enzyme inhibition assay (peptide substrate Dnp-Pro-Leu-Gly-Leu-Trp-Ala-D-Arg-NH2, Trp fluorescence), collagenase; details: pH 7.5, overnight, Ki (app) assumed to approximate true Ki
T2 sequence (P03956 100-469): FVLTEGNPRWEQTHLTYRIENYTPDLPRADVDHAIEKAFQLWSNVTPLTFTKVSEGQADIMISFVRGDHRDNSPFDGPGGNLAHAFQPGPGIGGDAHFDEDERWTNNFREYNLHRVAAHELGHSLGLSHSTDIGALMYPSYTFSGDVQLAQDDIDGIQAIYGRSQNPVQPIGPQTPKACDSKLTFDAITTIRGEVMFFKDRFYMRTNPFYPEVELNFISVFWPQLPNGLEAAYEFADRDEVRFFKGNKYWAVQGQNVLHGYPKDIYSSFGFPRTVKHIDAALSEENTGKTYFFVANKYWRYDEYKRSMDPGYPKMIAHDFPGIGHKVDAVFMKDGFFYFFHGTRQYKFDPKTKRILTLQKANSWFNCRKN
Source text: as §1, §2, §3

[1] = value printed in μM in the cell

Chain of Stromelysin-1 (P08254 100-477, species assumed): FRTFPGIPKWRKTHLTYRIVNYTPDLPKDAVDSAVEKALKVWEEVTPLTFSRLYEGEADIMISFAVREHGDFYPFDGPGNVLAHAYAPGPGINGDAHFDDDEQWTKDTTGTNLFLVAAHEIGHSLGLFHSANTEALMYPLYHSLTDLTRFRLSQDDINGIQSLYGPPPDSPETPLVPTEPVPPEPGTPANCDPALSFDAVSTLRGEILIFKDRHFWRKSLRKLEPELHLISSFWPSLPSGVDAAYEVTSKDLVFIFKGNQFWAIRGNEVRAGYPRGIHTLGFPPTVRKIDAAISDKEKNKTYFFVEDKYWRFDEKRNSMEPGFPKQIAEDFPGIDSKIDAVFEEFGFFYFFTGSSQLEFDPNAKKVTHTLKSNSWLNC

Row | Ki (Gelatinase-72KD) | Ki (Stromelysin-1) | Ki (Collagenase) | Structure (SMILES) | Ki (Stromelysin-1; [1]) | Ki (Collagenase; [1])
1 | 0.025 nM | 0.00592 µM | 0.15 µM | NS(=O)(=O)c1ccc(CCNC(=O)[C@H](CC2CCCCC2)NC(=O)[C@H](CCCc2ccccc2)CC(=O)NO)cc1 [Example 6, [4-(N-Hydroxyamino)-2R-phenylpropylsuccinyl]-L-β-cyclohexyalanine-N-(2-(p-sulphonamidophenyl)ethyl) amide] |  | 
2 | 0.14 nM | 0.0248 µM | 0.21 µM | O=C(C[C@@H](CCCc1ccccc1)C(=O)N[C@@H](CC1CCCCC1)C(=O)NCCCN1CCOCC1)NO [Example 12, [4-(N-Hydroxyamino)-2R-phenylpropylsuccinyl]-L-β-cyclohexylalanine-N-[3(4-morpholinyl)propyl] amide] |  | 
3 |  | 0.842 µM |  | O=C(O)C[C@@H](CCCc1ccccc1)C(=O)N[C@@H](CC1CCCCC1)C(=O)NCCc1ccccc1 [Example 15, [4-Hydroxy-2(R)-(3-phenylpropyl)succinnyl]-L-β-cyclohexylalanine-(N-2-phenylethyl) amide] |  | 

Row | Structure (SMILES) | Ki (Gelatinase-72KD) | Ki (Stromelysin-1) | Ki (Collagenase) | Ki (Stromelysin-1; [1]) | Ki (Collagenase; [1])
4 | COC(=O)CCNC(=O)[C@H](CC1CCCCC1)NC(=O)[C@H](CCCc1ccccc1)CC(=O)O [Example 16, [4-Hydroxy-2(R)-(3-phenylpropyl)succinyl]-L-β-cyclohexylalanine-β-alanine methyl ester] | 6 nM |  |  | 1.47 µM | 57 µM
